# Patent publication US20220054535A1, “STRONTIUM BASED COMPOSITIONS AND FORMULATIONS FOR PAIN, PRURITUS, AND INFLAMMATION” (STRONTIUM NEUROGENICS INC., priority 2018, published 2022)
# Key:
# [1] = system: TCN activation; assay: Burning pain and stinging from highly acidic chemical peel (70% glycolic acid, pH 0.6); format: in vivo; conditions: strontium mixed with the acid (70% glycolic acid, pH 0.6)
# Procedure: Nociceptors also have a CaSR that inhibits nociceptor activation when the extracellular concentration of calcium is raised above normal, or if a similar concentration of strontium is administered. […] When strontium is mixed with the acid, burning pain and stinging is suppressed by 80% or more so that any remaining sensory irritation is not bothersome.
# [2] = target: T1, IL-17 (Homo sapiens, UniProt Q16552); assay: Preliminary investigations on the psoriasis inflammatory/keratinocyte cycle, IL-17
# T1 sequence (Q16552 24-155): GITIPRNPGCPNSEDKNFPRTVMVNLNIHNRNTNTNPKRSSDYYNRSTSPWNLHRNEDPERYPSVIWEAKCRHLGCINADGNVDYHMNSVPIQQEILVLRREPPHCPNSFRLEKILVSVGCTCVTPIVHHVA
# Text: (§1) The present disclosure is premised on the belief that the psoriatic cycle begins with a triggering event such as trauma, infection, or stress that causes the keratinocytes to become stressed and activates dendritic cells. The dendritic cells release IL-12 and IL-23, which in turn stimulate Th17 and Th1 cells […]. Th17 releases […] which stimulates inflammation. Similarly, Th1 cells release […] which stimulates inflammation. Th1 cells also stimulate keratinocyte division leading to the formation of plaques. The activation of immune cells releases cytokines which also activates keratinocytes. The interaction between the immune system and keratinocyte activation becomes a self-feeding cycle.
# (§2) Applicants' preliminary investigations indicate that strontium can break up the inflammatory/keratinocyte cycle of psoriasis, specifically by blocking the IL-17 and TNF-alpha. By targeting and blocking the two main pathways that activated dendritic cells use to trigger a psoriatic episode, strontium has immense potential as a therapeutic for psoriasis.
# [3] = target: TNF-alpha (Homo sapiens, UniProt P01375); assay: Preliminary investigations on the psoriasis inflammatory/keratinocyte cycle, TNF-alpha
# Text: as §1, §2
# [4] = target: TLR-4 (Homo sapiens, UniProt O00206); assay: Preliminary data in atopic dermatitis pathways, TLR-4
# Text: The present disclosure is premised on the belief that people with atopic dermatitis have higher levels of Staphylococcus aureus on their skin. The higher bacterial levels trigger an immune response via the toll-like receptors, in particular toll-like receptor 4 (TLR-4). The present disclosure is also premised on the belief that continual activation of TLR-4 contributes to the chronic nature of atopic dermatitis.
# [5] = system: MMP; assay: Preliminary data in atopic dermatitis pathways, MMP activity
# Text: Other molecular pathways activated in atopic dermatitis include matrix metalloproteinases (MMPs). MMPs are a family of enzymes capable of breaking down extracellular matrix proteins, including connective tissues.
# [6] = system: HSV1; assay: Preliminary investigations on HSV1 symptoms; format: in vivo
# Text: Without wishing to be bound by any one theory, it is believed that strontium's ability to block NF-Kappa B contributes to minimizing the symptoms associated with an active infection. As mentioned above, HSV 1 and 2 require the activation of NF-Kappa B for de novo virus synthesis. By blocking NF-Kappa B, strontium is essentially stopping the infection at an early stage.
# [7] = Preliminary investigations on post herpetic neuralgia pain; format: in vivo
# [8] = system: synchronous neurotransmitter release in response to TCN activation; conditions: strontium substitutes for calcium; cited from earlier work
# [9] = system: CICR pathway; conditions: cited from earlier work
# Chain of TNF-alpha (P01375 77-233 limits assumed, species assumed): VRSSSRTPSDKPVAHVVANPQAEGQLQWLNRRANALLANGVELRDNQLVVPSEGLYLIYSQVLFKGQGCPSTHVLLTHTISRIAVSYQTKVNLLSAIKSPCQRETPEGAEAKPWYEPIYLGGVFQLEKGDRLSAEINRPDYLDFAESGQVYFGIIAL
# Chain of TLR-4 (O00206 24-839, species assumed): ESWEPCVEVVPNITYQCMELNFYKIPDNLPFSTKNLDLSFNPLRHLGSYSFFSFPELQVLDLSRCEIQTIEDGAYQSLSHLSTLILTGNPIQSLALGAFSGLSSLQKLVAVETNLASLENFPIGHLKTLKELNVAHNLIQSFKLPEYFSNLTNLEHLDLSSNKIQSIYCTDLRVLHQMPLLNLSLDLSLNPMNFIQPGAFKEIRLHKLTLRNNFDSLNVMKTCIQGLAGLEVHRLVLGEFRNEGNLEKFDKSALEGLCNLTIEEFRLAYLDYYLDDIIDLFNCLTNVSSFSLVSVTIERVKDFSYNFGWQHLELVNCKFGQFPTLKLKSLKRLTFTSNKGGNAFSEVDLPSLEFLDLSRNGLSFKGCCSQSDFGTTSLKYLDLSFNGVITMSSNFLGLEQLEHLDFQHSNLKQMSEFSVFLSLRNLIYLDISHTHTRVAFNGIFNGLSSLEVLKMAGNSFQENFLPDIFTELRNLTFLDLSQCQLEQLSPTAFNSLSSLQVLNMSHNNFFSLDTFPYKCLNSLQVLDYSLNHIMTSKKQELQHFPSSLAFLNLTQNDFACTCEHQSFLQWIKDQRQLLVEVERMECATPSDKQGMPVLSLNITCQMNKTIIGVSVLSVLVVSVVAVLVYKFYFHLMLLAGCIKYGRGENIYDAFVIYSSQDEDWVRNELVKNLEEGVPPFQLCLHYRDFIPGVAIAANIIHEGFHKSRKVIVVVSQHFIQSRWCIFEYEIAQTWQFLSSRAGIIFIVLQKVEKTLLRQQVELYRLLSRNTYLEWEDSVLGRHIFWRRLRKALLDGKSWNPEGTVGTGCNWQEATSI
# Chain of TLR-4 (Q9Y6Y9 17-160 partner limits assumed, species assumed): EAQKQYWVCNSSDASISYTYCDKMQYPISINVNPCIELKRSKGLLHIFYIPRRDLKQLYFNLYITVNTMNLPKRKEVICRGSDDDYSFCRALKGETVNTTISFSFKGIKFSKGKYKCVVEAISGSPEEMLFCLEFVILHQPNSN
compound,measurement,setting,value
"[Sr+2] [strontium, Strontium]",suppression of burning pain and stinging,[1],≥ 80%
same,blocking of IL-17,[2],blocking
same,blocking of TNF-alpha,[3],blocking
same,TLR-4 activity,[4],can block
same,MMP activity,[5],can block
same,"pain, itch, and rash/blister formation associated with HSV1",[6],can reduce and or eliminate
same,pain associated with PHN,[7],can reduce or block
same,reduction of amplitude of synchronous neurotransmitter release,[8],more than 90%
same,ability to induce CICR relative to calcium,[9],over a hundred-fold less active than calcium
same,"concentration reached in the ER, greater than calcium",[9]; in the ER,more than 150%
